{"source": "patent US12339274B2", "about": "“Blood coagulometer and method” (priority 2016, dated 2025)", "test_system": "human whole blood", "assay_type": "cell-based", "note": "Like-named read-outs stand apart in the source and are kept apart here.", "excerpt": "One or more samples of human whole blood were collected by a licensed medical doctor from a healthy volunteer known to refrain from the taking of anticoagulant medications such as, for example, aspirin. Written informed consent of the donors was collected under an approved protocol from the Internal Review Board at the UT Health Science Center. Human whole blood was collected, by antecubital venipuncture, into vials 12 containing the anticoagulant sodium citrate (3.8%, applied at a 9:1 blood to citrate ratio).\nEmbodiments of the apparatus 10 of the present invention may also be used to characterize clot contraction. […] The test volume was 27 μL; however, to ensure filling of the test chamber and complete immersion within the blood sample 50 of the wetted portion 24/plate 15 of the probe 20 disposed within the vial 15, a volume of 250 μL of blood was injected into a vial 15 comprising glass. Data recording began once the wetted portion 24/plate 15 was lowered into position such that it was immersed within the blood sample 50 and was 1 mm away from the lower member 50, both of which comprised acrylic. Deflection of the wire portion 21 of the probe 20 typically began after 360 to 480 seconds, and data collection was concluded after 3,600 seconds (1 hour)."}
{"smiles": "C=C1[C@@H](C)[C@H]2[C@H](Cc3ccccc3)NC(=O)[C@]23[C@H](OC(C)=O)/C=C/[C@@](C)(O)C(=O)[C@@H](C)C/C=C/[C@H]3[C@@H]1O", "note": "[cytochalasin D]", "values": [{"measurement": "contraction force", "setting": "increasing concentrations in human whole blood", "result": "dose-dependent decrease"}]}
{"smiles": "c1nnn[nH]1", "note": "[tetrazole]", "values": [{"measurement": "contraction force", "setting": "1 mMol in human whole blood, FIG. 41", "result": "enhanced contraction force"}, {"measurement": "contraction force", "setting": "60 mMol in human whole blood, FIG. 41", "result": "reduced contraction force"}]}
